Reference: PMC8232621, “Antimicrobial Activity of a Library of Thioxanthones and Their Potential as Efflux Pump Inhibitors” (Pharmaceuticals, 2021)
Read-outs that look alike come from different tables or passages of the source.

What was measured:
E. faecalis ATCC 29212 = assay: Antibacterial activity, broth microdilution MIC; format: cell-based; conditions: Enterococcus faecalis
Description: (§1) The referred library of thioxanthones was initially tested for their antimicrobial activity against six bacterial strains: the Gram-negative Escherichia coli ATCC 25922, Pseudomonas aeruginosa ATCC 27853 and Salmonella enterica serovar Typhimurium SL1344 (SE03), with the acrA gene deleted, and the Gram-positive Staphylococcus aureus ATCC 29213, Enterococcus faecalis ATCC 29212 and the methicillin and ofloxacin-resistant clinical isolate S. aureus 272123. For the synergy assay, two clinically relevant isolates were used: the extended-spectrum β-lactamase (ESBL)-producing E. coli SA/2 [23] and the vancomycin-resistant E. faecalis (VRE) B3/101 [23]. The antibiotics used were cefotaxime (CTX) and vancomycin (VAN), respectively.
(§2) The minimum inhibitory concentration (MIC) for each compound was determined by broth microdilution method in a 96-well plate according to the Clinical and Laboratory Standard Institute (CLSI) guidelines. The medium used was MHB II. The concentrations tested ranged from 100 µM to 0.195 µM and were prepared from a stock solution of 10 mM in DMSO, for S. aureus 272123 and SE03; for the other strains, the concentrations tested ranged from 64 µg/mL to 4 µg/mL and were prepared from a stock solution of 10 mg/mL in DMSO. DMSO was used in subinhibitory concentrations (1% v/v). The MIC was determined by visual inspection.

S. aureus 272123 [1] = assay: Antibacterial activity, broth microdilution MIC; format: cell-based; conditions: Staphylococcus aureus, 272123, read-out: Minimum Inhibitory Concentration (MIC)
Description: as §1, §2

S. aureus ATCC 29213 [2] = assay: Antibacterial activity, broth microdilution MIC; format: cell-based; conditions: Staphylococcus aureus
Description: as §1, §2

SE03 = assay: Antibacterial activity, broth microdilution MIC; format: cell-based, Salmonella enterica serovar Typhimurium SL1344; conditions: Salmonella enterica, read-out: Minimum Inhibitory Concentration (MIC)
Description: as §1, §2

S. aureus ATCC 29213 [3] = assay: Inhibition of biofilm formation (crystal violet); format: cell-based; conditions: Staphylococcus aureus, ATCC29213, 48 h
S. aureus 272123 [4] = assay: Inhibition of biofilm formation (crystal violet); format: cell-based, Staphylococcus aureus; conditions: read-out: Biofilm Inhibition (%) ± SD
Procedure: Efflux mechanisms are one of the factors that can lead to biofilm-mediated resistance, along with slow growth and reduced penetration due to production of extracellular polysaccharides. […] Additionally, they can also modulate QS, through an influence in the transport of QS signal molecules. Thioxanthones 2–18 were tested for their potential for inhibiting biofilm formation by S. aureus ATCC 29213 and the multi-resistant S. aureus 272123. The biofilm inhibition, presented in percentage (%), was calculated based on the mean of absorbance units. Reserpine, which has previously been described as both an efflux pump inhibitor and an inhibitor of biofilm formation in Gram-positive bacteria was used as control in both strains.
The thioxanthone derivatives were tested for their ability to decrease the formation of biofilm. The bacterial strains used were the Gram-positive S. aureus […] and S. aureus 272123. The detection of the biofilm formation was carried out using the dye crystal violet (CV; 0.1% v/v). The initial inoculum was incubated in TSB overnight, and then diluted to an OD600 of 0.1. […] This meant that compound 12 was added at 50 µM, while the rest of the compounds were added at the concentration of 100 µM. The final volume in each well was 200 µL. Reserpine was used as a positive control, as it was the same compound used in the efflux pump inhibition assay and it has shown activity in the inhibition of biofilm formation in S. aureus strains. The plates were incubated at 30 °C for 48 h, with gentle stirring (100 rpm). After this incubation period, the TSB medium was discarded, and the plates were washed with tap water to remove unattached cells. Afterwards, 200 µL of a 0.1% v/v CV solution were added to the wells and incubated for 15 min at room temperature. Then, the CV solution was removed from the wells, and the plates were washed again with tap water, and 200 µL of a 70% ethanol solution was added to the wells. The biofilm formation was determined by measuring the OD600 using a Multiscan EX ELISA plate reader (Thermo Labsystems, Cheshire, WA, USA). The anti-biofilm effect of the compounds was expressed in the percentage (%) of decrease of biofilm formation.

S. marcescens = assay: Quorum sensing inhibition assay (pigment production); format: cell-based, Serratia marcescens AS-1; conditions: Serratia marcescens, read-out: Quorum Sensing Inhibition (mm) ± SD
Procedure: (§3) Concerning the QS inhibition assay, the sensor strain Chromobacterium violaceum CV026 and the AHL producer strain Sphingomonas paucimobilis Ezf 10-17 (EZF) were inoculated as parallel lines, and the AHL producers Chromobacterium violaceum wild-type 85 (wt85) and Serratia marcescens AS-1 were inoculated as a single line. The interaction between the strains and compounds 2–18 was evaluated as the reduction of pigment production, in millimeters (mm) (Table 5) with promethazine (PMZ) as a positive control.
(§4) The QS inhibitory effect of the compounds was examined on the EZF and the sensor CV026 strains, on the wt85 strain, and on S. marcescens. The method used was the parallel inoculation method, where pair combinations of the used sensor strain CV026 and the N-acyl-homoserine lactone (AHL) producing strain EZF were inoculated directly onto the LB*-A agar surface in parallel, at an approximate distance of 5 mm from each other. S. marcescens AS-1 and wt85 were inoculated as a single line. Filter paper disks (7 mm in diameter) were placed on the center of the inoculated line(s) and impregnated with 8 µL of a solution of 10 mM of the compounds. […] The agar plates were incubated at room temperature (20 °C) for 24−48 h. The QS inhibition was accessed visually, through the inhibition of pigment production. The discolored, but intact, bacterial colonies were measured with a ruler.

wt85 = assay: as above; format: cell-based, Chromobacterium violaceum wild-type 85; conditions: Chromobacterium violaceum, read-out: Quorum Sensing Inhibition (mm) ± SD
Procedure: as §3, §4

EZF + CV026 = assay: Quorum sensing inhibition assay (pigment production), parallel inoculation; format: cell-based; conditions: disk with 8 µL of 10 mM solution, read-out: Quorum Sensing Inhibition (mm) ± SD
Procedure: as §3, §4

[5] = ATCC29212, read-out: Minimum Inhibitory Concentration (MIC)
[6] = ATCC29212, E. faecalis ATCC 29212, read-out: Minimum Inhibitory Concentration (MIC)
[7] = ATCC29213, read-out: Minimum Inhibitory Concentration (MIC)
[8] = ATCC29213, S. aureus ATCC 29213, read-out: Minimum Inhibitory Concentration (MIC)
[9] = S. aureus ATCC 29213, compounds 100 µM (compound 12 at 50 µM), read-out: Biofilm Inhibition (%) ± SD
[10] = Staphylococcus aureus, S. aureus 272123, compounds 100 µM (compound 12 at 50 µM), 48 h

| Compound | MIC (E. faecalis ATCC 29212; [5]) | MIC (E. faecalis ATCC 29212; [6]) | MIC (S. aureus 272123 [1]) | MIC (S. aureus ATCC 29213 [2]; [7]) | MIC (S. aureus ATCC 29213 [2]; [8]) | MIC (SE03) | inhibition at 100 µM (S. aureus ATCC 29213 [3]; [9]) | inhibition at 100 µM (S. aureus 272123 [4]; [10]) | zone of inhibition at 10000 µM (S. marcescens) | zone of inhibition at 10000 µM (wt85) | zone of inhibition at 10000 µM (EZF + CV026) | inhibition at 100 µM (S. aureus ATCC 29213 [3]; read-out: Biofilm Inhibition (%) ± SD, S. aureus ATCC 29213, compounds 100 µM (compound 12 at 50 µM)) | inhibition at 100 µM (S. aureus 272123 [4]; Staphylococcus aureus, 272123, 48 h) |
| --- | --- | --- | --- | --- | --- | --- | --- | --- | --- | --- | --- | --- | --- |
| CCCOc1ccc(NCCN(CC)CC)c2c(=O)c3ccccc3sc12 [Compound 2] | 83 µM | 32 µg/mL | > 100 µM | 83 µM | 32 µg/mL | > 100 µM | 0.53 ± 1.05% | 81.1 ± 1.18% | 0 mm | 0 mm | 0 mm | – | – |
| CCCOc1ccc(N2CCCCC2)c2c(=O)c3ccccc3sc12 [Compound 3] | – | > 100 µM | > 100 µM | – | > 100 µM | > 100 µM | – | – | 0 mm | 0 mm | 31 ± 0.8 mm | > 90% | 93.49 ± 0.33% |
| CCCOc1ccc(Nc2nc(C)cc(C)n2)c2c(=O)c3ccccc3sc12 [Compound 8, 1-[(4,6-Dimethylpyrimidin-2-yl)amino]-4-propoxy-9H-thioxanthen-9-one] | – | > 100 µM | > 100 µM | – | > 100 µM | > 100 µM | 0% | 0% | 0 mm | 0 mm | 32 ± 0.1 mm | – | – |
| CCCOc1ccc(N2CCNC(=O)C2)c2c(=O)c3ccccc3sc12 [Compound 9, 4-(9-Oxo-4-propoxy-9H-thioxanthen-1-yl)piperazin-2-one] | – | > 100 µM | > 100 µM | – | > 100 µM | > 100 µM | 5.18 ± 1.02% | 31.5 ± 8.99% | 0 mm | 0 mm | 0 mm | – | – |
| CCCOc1ccc(NCCO)c2c(=O)c3ccccc3sc12 [Compound 10, 1-[(2-Hydroxyethyl)amino]-4-propoxy-9H-thioxanthen-9-one] | – | > 100 µM | > 100 µM | – | > 100 µM | > 100 µM | 0% | 55.2 ± 4.2% | 0 mm | 0 mm | 0 mm | – | – |
| CCCOc1ccc(NCCN2CCOCC2)c2c(=O)c3ccccc3sc12 [Compound 11, 1-[(2-Morpholinoethyl)amino]-4-propoxy-9H-thioxanthen-9-one] | – | > 100 µM | > 100 µM | – | > 100 µM | > 100 µM | 0% | 20.2 ± 4% | 31 ± 0.8 mm | 0 mm | 0 mm | – | – |
| CCCOc1ccc(NS(=O)(=O)c2ccc(C(=O)O)cc2)c2c(=O)c3ccccc3sc12 [Compound 12, 4-[N-(9-Oxo-4-propoxy-9H-thioxanthen-1-yl)sulfamoyl]benzoic acid] | 34 µM | 16 µg/mL | > 100 µM | 34 µM | 16 µg/mL | 50 µM | ~53% | – | 0 mm | 0 mm | 0 mm | – | – |
| CCCOc1ccc(NS(=O)(=O)c2ccc(N)cc2)c2c(=O)c3ccccc3sc12 [Compound 13, 4-Amino-N-(9-oxo-4-propoxy-9H-thioxanthen-1-yl)benzenesulfonamide] | – | > 100 µM | > 100 µM | – | > 100 µM | > 100 µM | 0.42 ± 1.36% | 72 ± 6.66% | 0 mm | 0 mm | 51 ± 0.1 mm | – | – |
| CCCOc1ccc(Br)c2c(=O)c3ccccc3sc12 [Compound 14, 1-Bromo-4-propoxy-9H-thioxanthen-9-one] | – | > 100 µM | > 100 µM | – | > 100 µM | > 100 µM | 0% | 2.46 ± 0.72% | 0 mm | 0 mm | 0 mm | – | – |
| CCCOc1ccc2ncnc3c2c1Sc1ccccc1-3 [Compound 15] | – | > 100 µM | > 100 µM | – | > 100 µM | > 100 µM | 0% | 76 ± 2.06% | 32 ± 0.5 mm | 0 mm | 50 ± 0.1 mm | – | – |
